{"source": "ChEMBL document CHEMBL2010678", "about": "“Tigliane diterpene esters with IFN γ-inducing activity from the leaves of Aleurites fordii” (Bioorg Med Chem Lett, 2012)", "type_in_all_cases": "functional, cell-based", "key": {"NK92 [1]": {"system": "NK92", "experiment": "Immunomodulatory activity in human NK92 cells assessed as induction of IFNgamma at 40 nM after 12 hrs by ELISA"}, "NK92 [2]": {"system": "NK92", "experiment": "Immunomodulatory activity in human NK92 cells assessed as induction of IFNgamma after 12 hrs by ELISA"}, "NK92 [3]": {"system": "NK92", "experiment": "Immunomodulatory activity in human NK92 cells assessed as induction of IFNgamma at 4 nM after 12 hrs by ELISA"}}, "note": "Calls of active or inactive are those of the source. The rule behind the calls is not given here.", "data": [{"smiles": "CCCCCCCCCCCCCCCC(=O)O[C@@H]1[C@@H](C)[C@@]2(O)[C@@H](C(=O)C(CO)=C[C@]3(O)C(=O)C(C)=C[C@@H]23)[C@H]2[C@]1(OC(C)=O)[C@@]2(C)CO", "values": [{"measurement": "Activity", "setting": "NK92 [1]", "result": "Active"}]}, {"smiles": "CCCCCCCCCCCCCCCC(=O)O[C@@H]1[C@@H](C)[C@]2(O)[C@@H]3C=C(C)C(=O)[C@@H]3CC(CO)=C[C@H]2[C@H]2[C@]1(OC(C)=O)[C@@]2(C)CO", "values": [{"measurement": "Activity", "setting": "NK92 [2]", "result": "inactive"}]}, {"smiles": "CCCCCCCCCCCCCCCC(=O)O[C@@H]1[C@@H](C)[C@@]2(O)[C@@H](C=C(CO)C[C@]3(O)C(=O)C(C)=C[C@@H]23)[C@@H]2C(C)(C)[C@]12OC(C)=O", "values": [{"measurement": "Activity", "setting": "NK92 [3]", "result": "Active"}]}, {"smiles": "CCCCCCCCCCCCCCCC(=O)O[C@@H]1[C@@H](C)[C@@]2(O)[C@@H](C(=O)C(CO)=C[C@]3(O)C(=O)C(C)=C[C@@H]23)[C@@H]2C(C)(C)[C@]12OC(C)=O", "values": [{"measurement": "Activity", "setting": "NK92 [2]", "result": "inactive"}]}, {"smiles": "CCCCCCCCCCCCCCCC(=O)O[C@@H]1[C@@H](C)[C@@]2(O)[C@@H](C=C(CO)C[C@]3(O)C(=O)C(C)=C[C@@H]23)[C@H]2[C@]1(OC(C)=O)[C@@]2(C)CO", "values": [{"measurement": "Activity", "setting": "NK92 [3]", "result": "Active"}]}, {"smiles": "CCCCCCCCCCCCCC(=O)O[C@@H]1[C@@H](C)[C@@]2(O)[C@@H](C=C(CO)C[C@]3(O)C(=O)C(C)=C[C@@H]23)[C@@H]2C(C)(C)[C@]12OC(C)=O", "values": [{"measurement": "Activity", "setting": "NK92 [2]", "result": "Active"}]}]}
